Test results taken from article PMC6686156, “Discovery of Sustainable Drugs for Neglected Tropical Diseases: Cashew Nut Shell Liquid (CNSL)‐Based Hybrids Target Mitochondrial Function and ATP Production in Trypanosoma brucei” (Chemmedchem, 2019).
Where two headings read alike, the source gives them in different places.

How the values were obtained:
T. congolense IL3000 WT = test: In vitro drug susceptibility assay (resazurin), T. congolense; format: cell-based; details: Trypanosoma congolense, bloodstream forms, read-out: EC50 T. c. IL3000 WT
Protocol: (§1) Organisms and culture media: Only bloodstream trypomastigotes of T. b. brucei were used throughout this study. […] Parasites were cultured in vented flasks at 37 °C and 5 % CO2 atmosphere and they were passaged every 3 days. Bloodstream forms of T. congolense savannah‐type strain IL3000 were cultured in basal MEM medium, supplemented by 10 % fresh goat serum, 14 μL of β‐mercaptoethanol, 800 μL of 200 mM glutamine solution, and 10 mL of penicillin/streptomycin solution per liter of medium (pH 7.3).48 T. congolense were cultured in six‐well plates at 34 °C and 5 % CO2.
(§2) In brief, the assays were performed in 96‐well plates with 2×10^5 cells per well for T. b. brucei or 5×10^5 cells per well for T. congolense, in their respective culture media. First, 200 μL of test compounds’ solutions (400 μM, in T. brucei or T. congolense medium as appropriate) was added to the first well of each 12‐well row, from which doubling dilutions were conducted over one row per test compound. […] Fluorescence was detected using a FLUOstar Optima (BMG Labtech, Durham, NC, USA) at wavelength of 540 nm (excitation), 590 nm (emission). EC50 values were calculated by nonlinear regression using an equation for a sigmoidal dose–response curve with variable slope using Prism 5.0 (GraphPad Software Inc., San Diego, CA, USA).

[1] = system: T. b. brucei 427WT trypomastigotes; test: Growth curve / time-to-kill determination; format: cell-based, Trypanosoma brucei brucei; details: 1× EC50; over 48 h
Protocol: To determine whether 18–22 inhibited growth or cell division rather than causing cell death of T. b. brucei, cell growth curves were performed by treating 427WT trypomastigotes with concentrations corresponding to 0.5×, 1×, and 2× the EC50 value, using untreated cells as a control. Incubation with test compounds at half the EC50 (Figure 3 A) caused mostly some delayed growth phenotype, with rates increasing after 10 or 20 h. […] At double the concentration (Figure 3 C), all the hybrids cleared the culture between the 4 h and 8 h time points, with the cell populations rapidly declining between 2 and 4 h.
Untreated parasites, used as control, were grown in parallel. The cells were counted by using hemocytometer cell counter (cell count/mL×10^4) at 0, 2, 4, 8, 12, 24, 28, 32, 36, 48 h of incubation. Each experiment was performed as two independent replicates, and each sample was counted at least twice.

[2] = system: T. b. brucei 427WT trypomastigotes; test: Reactive oxygen species (ROS) assay (DCFH-DH); format: cell-based, Trypanosoma brucei brucei; details: incubation up to 2 h, multiples of EC50
Protocol: Reactive oxygen species (ROS) assay on T. b. brucei: The production of ROS when T. b. brucei 427WT trypomastigotes incubated with different concentration (2.5×EC50; 1.25×EC50; 0.3×EC50) of test compound was assessed using the indicator dye 2,7‐dichlorodihydrofluorescein diacetate (DCFH‐DH; Sigma–Aldrich). This assay was performed in a 96‐well black‐bottomed well plate; 200 μL of each test compound solution, at 5×EC50 in assay buffer pH 7.3, was added to the well in the first column of the plate and doubling dilutions were carried out across the row, after which 3×10^6 cell in 100 μL of assay buffer were added to each well, immediately followed by 2 μL of 1 mM DCFH‐DH, under minimal light conditions. The plates were incubated in a FLUOstar OPTIMA fluorimeter at 37 °C 5 % CO2 and the fluorescence was monitored at 485 nm for the excitation, 520 nm for the emission for 3 h, taking readings of each well every 2 min. Three wells were included in the plate as controls: 1) 3×10^6 cells per well in assay buffer without test compound; 2) 3×10^6 cells per well in assay buffer with 2 μL of 10 mM H2O2; 3) assay buffer without cells and test compound.

[3] = system: T. b. brucei 427WT bloodstream trypomastigotes; test: microbe, parasite or virus in culture; format: cell-based, Trypanosoma brucei brucei; details: for SI, selectivity index=EC50(HFF)/EC50(T. b. b. WT): HFF versus T. b. b. 427WT; for RF, resistance factor (+ 5 mM glycerol versus control): Table 2; for EC50: Trypanosoma brucei; for fold more active than compound 4: trypanocidal activity relative to parent compound 4
Protocol: as §1, §2

T. b. brucei B48 = test: microbe, parasite or virus in culture; format: cell-based, Trypanosoma brucei brucei; details: for RF, resistance factor relative to WT (B48): B48 versus 427WT; for EC50: Trypanosoma brucei, read-out: EC50 T. b. b. B48
Protocol: as §1, §2

[4] = system: T. b. brucei aqp2/aqp3‐KO; test: microbe, parasite or virus in culture; format: cell-based, Trypanosoma brucei brucei; details: for EC50: Trypanosoma brucei, read-out: EC50 T. b. b. aqp2/aq3‐KO; for RF, resistance factor relative to WT (aqp2/aqp3-KO): aqp2/aqp3-KO versus 427WT
Protocol: as §1, §2

[5] = Cytotoxicity assay on human foreskin fibroblast (HFF), resazurin; format: cell-based; details: human foreskin fibroblast (HFF) cells, tested up to 200 μM, read-out: HFF cytotoxic activity (EC50)
Protocol: Cytotoxicity assay on human foreskin fibroblast (HFF): Toxicity of test compounds to mammalian cells was carried out using the resazurin assay previously described31 with slight modifications as follows. HFF cells were grown in a culture medium containing 500 mL of Dulbecco's modified Eagle's medium (DMEM; Sigma), 50 mL newborn calf serum (NBCS; Gibco), 5 mL penicillin/streptomycin (Gibco), and 5 mL of L‐Glutamax ([…], Gibco), at 37 °C and 5 % CO2 in vented flasks and passaged at 80–85 % of confluence. For the cytotoxicity assay, cells were suspended at 3×10^5 cells mL^−1 and 100 μL aliquots were added to each well of a 96‐well plate. The plate was incubated at 37 °C and 5 % CO2 for 24 h to allow cell adhesion. Serial test compounds dilution was performed in a different 96‐well plate and 100 μL of each dilution was transferred to each well containing cells, resulting in exposure of cells to 200–0.2 μM of test compound. Phenylarsine oxide (Sigma–Aldrich) was used as positive control and drug‐free incubation as negative control. The plates were incubated at 37 °C and 5 % CO2 for an additional 30 h, at which point 10 μL of resazurin solution ([…] in PBS) was added, followed by a final incubation for 24 h. The plates were read and the data analyzed as described above for the trypanosome assay.

[6] = system: T. b. brucei 427WT bloodstream trypomastigotes; test: Transmission electron microscopy on T. b. brucei; format: cell-based, Trypanosoma brucei brucei; details: 1×EC50; 4 h exposure
Protocol: Transmission electron microscopy assay on T. b. brucei and HFF cells: TEM of bloodstream trypomastigotes (427WT) and of HFF was performed essentially as previously described.52 Briefly, cell cultures were adjusted to 2.5×10^6 cells mL^−1 and incubated in the presence or absence of test compounds at EC50. Cells were fixed overnight at 4 °C in 2.5 % glutaraldehyde and 4 % paraformaldehyde in 0.1 M phosphate buffer (pH 7.4). Samples were washed with 0.1 M phosphate buffer (pH 7.4), post‐fixed in 1 % osmium tetroxide for 1 h on ice, and washed with the phosphate buffer. Cells were next incubated in 0.5 % uranyl acetate solution for 30 min, washed with distilled water and dehydrated in increasing concentrations of acetone (30, 50, 70, 90 and 100 %).

[7] = 72 h, bloodstream trypomastigotes, resazurin, 48 h + 24 h, n=4, read-out: EC50 T. b. b. 427WT
[8] = Table 2, 5 mM glycerol in medium, average±SEM of three, read-out: EC50 s427WT + 5 mM glycerol
[9] = Table 2, no glycerol, average±SEM of three, read-out: EC50 Control s427WT

COc1cccc2c1C(=O)C=C(Oc1cccc(CCCCCCCCO)c1)C2=O [Compound 20, 2‐(3‐(8‐Hydroxyoctyl)phenoxy)‐5‐methoxynaphthalene‐1,4‐dione]
EC50 (T. congolense IL3000 WT): 18.8 ± 0.2 µM | effect on cell growth [1]: decreased the growth rate substantially, with a nearly trypanostatic effect over the first 12 h | ROS production [2]: dose‐dependently increased | SI, selectivity index=EC50(HFF)/EC50(T. b. b. WT) [3]: >40 | RF, resistance factor (+ 5 mM glycerol versus control) [3]: 1.74 | EC50 [3, 7]: 5 ± 0.3 µM | EC50 [3, 8]: 16 ± 0.2 µM | EC50 [3, 9]: 9.2 ± 0.04 µM | fold more active than compound 4 [3]: up to 10 fold | RF, resistance factor relative to WT (B48) (T. b. brucei B48): 1.1 | EC50 (T. b. brucei B48): 5.3 ± 0.8 µM | EC50 [4]: 6.2 ± 0.58 µM | RF, resistance factor relative to WT (aqp2/aqp3-KO) [4]: 1.2 | EC50 at 54 h [5]: > 200 µM | ultrastructure by TEM in trypanosomes [6]: some mitochondria presented an irregular shape

O=C1C(Oc2cccc(CCCCCCCCO)c2)=CC(=O)c2c(O)cccc21 [Compound 22, 5‐Hydroxy‐2‐(3‐(8‐hydroxyoctyl)phenoxy)naphthalene‐1,4‐dione]
EC50 (T. congolense IL3000 WT): 43.4 ± 0.2 µM | effect on cell growth [1]: killed only a proportion of the cell population before stabilizing | ROS production [2]: dose‐dependently increased | SI, selectivity index=EC50(HFF)/EC50(T. b. b. WT) [3]: >26.3 | RF, resistance factor (+ 5 mM glycerol versus control) [3]: 1.11 | EC50 [3, 7]: 7.6 ± 0.7 µM | EC50 [3, 8]: 28.2 ± 0.2 µM | EC50 [3, 9]: 25.4 ± 1 µM | fold more active than compound 4 [3]: up to 10 fold | RF, resistance factor relative to WT (B48) (T. b. brucei B48): 0.91 | EC50 (T. b. brucei B48): 6.8 ± 0.1 µM | EC50 [4]: 7.3 ± 0.5 µM | RF, resistance factor relative to WT (aqp2/aqp3-KO) [4]: 0.96 | EC50 at 54 h [5]: > 200 µM | ultrastructure by TEM in trypanosomes [6]: mitochondrial damage but no other ultrastructural changes
